From patent US20060148858A1, “1, 2-Azole derivatives with hypoglycemic and hypolipidemic activity” (priority 2002, published 2006)

SMILES | melting point [°C]
CCOc1nn(-c2cc(C(F)(F)F)ccn2)cc1CCCOc1cccc(OC(C)(C)C(=O)O)c1 [Example 289, 2-[3-(3-{3-ethoxy-1-[4-(trifluoromethyl)-2-pyridinyl]-1H-pyrazol-4-yl}propoxy)phenoxy]-2-methylpropanoic acid] | 98 to 99
CCOc1nn(-c2ccc(C(F)(F)F)cc2)cc1CCCOc1ccc(CCC(=O)O)cc1OC [Example 115, 3-[4-(3-{3-ethoxy-1-[4-(trifluoromethyl)phenyl]-1H-pyrazol-4-yl}propoxy)-3-methoxyphenyl]propanoic acid] | 125 to 126
O=C(O)c1ccccc1OCCCc1cc(-c2ccc(C(F)(F)F)cc2)no1 [Example 6, 2-(3-{3-[4-(trifluoromethyl)phenyl]-5-isoxazolyl}propoxy)benzoic acid] | 132 to 133
Cc1nn(-c2ccccn2)cc1COc1ccc(CCC(=O)O)cc1 [Example 372, 3-{4-[3-methyl-1-(2-pyridinyl)-1H-pyrazol-4-ylmethoxy]phenyl}propionic acid] | 129 to 130
COc1cccc(OCCCc2cn(-c3ccc(C(F)(F)F)cn3)nc2C(C)C)c1CC(=O)O [Example 208, [2-(3-{3-isopropyl-1-[5-(trifluoromethyl)-2-pyridyl]-1H-pyrazol-4-yl}propoxy)-6-methoxyphenyl]acetic acid] | 183 to 184
COc1ccc(OCCCc2cn(-c3ccc(C(F)(F)F)cn3)nc2C(C)C)c(CC(=O)O)c1 [Example 206, [2-(3-{3-isopropyl-1-[5-(trifluoromethyl)-2-pyridyl]-1H-pyrazol-4-yl}propoxy)-5-methoxyphenyl]acetic acid] | 143 to 144
COc1cccc(CC(=O)O)c1OCCCc1cn(-c2cccc(C(F)(F)F)n2)nc1C(C)C [Example 365, [2-(3-{3-isopropyl-1-[6-(trifluoromethyl)-2-pyridinyl]-1H-pyrazol-4-yl}propoxy)-3-methoxyphenyl]acetic acid] | 95 to 97
CCCc1nn(-c2ccc(C(F)(F)F)cn2)cc1CCCOc1c(CC(=O)O)cnn1CC [Example 326, [1-ethyl-5-(3-{3-propyl-1-[5-(trifluoromethyl)-2-pyridinyl]-1H-pyrazol-4-yl}propoxy)-1H-pyrazol-4-yl]acetic acid] | 125 to 126
COc1cccc(CC(=O)O)c1OCCCc1cn(-c2ncc(Cl)cc2Cl)nc1C(C)C [Example 336, (2-{3-[1-(3,5-dichloro-2-pyridyl)-3-isopropyl-1H-pyrazol-4-yl]propoxy}-3-methoxyphenyl)acetic acid] | 105 to 106
CC(C)c1nn(-c2ccc(C(F)(F)F)cn2)cc1CCCOc1nn(C2CCCCC2)cc1CC(=O)O [Example 317, [1-cyclohexyl-3-(3-{3-isopropyl-1-[5-(trifluoromethyl)-2-pyridinyl]-1H-pyrazol-4-yl}propoxy)-1H-pyrazol-4-yl]acetic acid] | 116 to 117
CCc1cccc(CC(=O)O)c1OCCCc1cn(-c2ncc(Cl)cc2Cl)nc1C(C)C [Example 251, (2-{3-[1-(3,5-dichloro-2-pyridinyl)-3-isopropyl-1H-pyrazol-4-yl]propoxy}-3-ethylphenyl)acetic acid] | 93 to 95
CCCc1nn(-c2ccc(C(F)(F)F)cc2)cc1CCCOc1c(CC(=O)O)cccc1OC [Example 297, [3-methoxy-2-(3-{3-propyl-1-[4-(trifluoromethyl)phenyl]-1H-pyrazol-4-yl}propoxy)phenyl]acetic acid] | 95 to 96
CCCc1nn(-c2ccc(C(F)(F)F)cn2)cc1CCCOc1ccc(CC(=O)O)c(OC)c1 [Example 95, [2-methoxy-4-(3-{3-propyl-1-[5-(trifluoromethyl)-2-pyridyl]-1H-pyrazol-4-yl}propoxy)phenyl]acetic acid] | 135 to 136
CC(C)c1nn(-c2ccc(C(F)(F)F)cn2)cc1CCCCOc1ccccc1CC(=O)O [Example 52, [2-(4-{3-isopropyl-1-[5-(trifluoromethyl)-2-pyridinyl]-1H-pyrazol-4-yl}butoxy)phenyl]acetic acid] | 125 to 126
CCOc1nn(-c2ccc(C(F)(F)F)cn2)cc1CCOc1ccccc1CC(=O)O [Example 57, [2-(2-{3-ethoxy-1-[5-(trifluoromethyl)-2-pyridinyl]-1H-pyrazol-4-yl}ethoxy)phenyl]acetic acid] | 134 to 135
COc1cccc(CC(=O)O)c1OCCCc1cn(-c2ccccn2)nc1C(C)C [Example 312, (2-{3-[3-isopropyl-1-(2-pyridinyl)-1H-pyrazol-4-yl]propoxy}-3-methoxyphenyl)acetic acid] | 102 to 104
CCC(CC)c1nn(-c2ccc(C(F)(F)F)cn2)cc1CCCOc1c(CC(=O)O)ccnc1C [Example 348, [3-(3-{3-(1-ethylpropyl)-1-[5-(trifluoromethyl)-2-pyridinyl]-1H-pyrazol-4-yl}propoxy)-2-methyl-4-pyridinyl]acetic acid] | 78 to 79

SMILES | melting point [°C]
Cc1nn(-c2ccc(C(F)(F)F)cn2)cc1CCCOc1cc(CC(=O)O)n(C)n1 [Example 283, [1-methyl-3-(3-{3-methyl-1-[5-(trifluoromethyl)-2-pyridinyl]-1H-pyrazol-4-yl}propoxy)-1H-pyrazol-5-yl]acetic acid] | 143 to 144
CCOc1nn(-c2ccc(C(F)(F)F)cn2)cc1CCOc1cccc(OC(C)(C)C(=O)O)c1 [Example 74, 2-[3-(2-{3-ethoxy-1-[5-(trifluoromethyl)-2-pyridinyl]-1H-pyrazol-4-yl}ethoxy)phenoxy]-2-methylpropanoic acid] | 89 to 90
O=C(O)Cc1ccc(OCCCc2cc(-c3ccc(C(F)(F)F)cc3)no2)cc1 [Example 1, [4-(3-{3-[4-(trifluoromethyl)phenyl]-5-isoxazolyl}propoxy)phenyl]acetic acid] | 127 to 128
CCc1cccc(CC(=O)O)c1OCCCc1cn(-c2ccc(Cl)cn2)nc1C(C)C [Example 243, (2-{3-[1-(5-chloro-2-pyridinyl)-3-isopropyl-1H-pyrazol-4-yl]propoxy}-3-ethylphenyl)acetic acid] | 142 to 143
O=C(O)c1ccc(OCCCCc2cc(-c3ccc(C(F)(F)F)cc3)no2)cc1 [Example 12, 4-(4-{3-[4-(trifluoromethyl)phenyl]-5-isoxazolyl}butoxy)benzoic acid] | 170 to 171
CCCc1nn(-c2ccc(C(F)(F)F)cn2)cc1CCCOc1cc(CC(=O)O)ccc1OC [Example 80, [4-methoxy-3-(3-{3-propyl-1-[5-(trifluoromethyl)-2-pyridinyl]-1H-pyrazol-4-yl}propoxy)phenyl]acetic acid] | 124 to 126
CCCOc1cc(CCC(=O)O)ccc1OCCCc1cn(-c2ccc(C(F)(F)F)cn2)nc1OCC [Example 163, 3-[4-(3-{3-ethoxy-1-[5-(trifluoromethyl)-2-pyridyl]-1H-pyrazol-4-yl}propoxy)-3-propoxyphenyl]propanoic acid] | 106 to 107
CCCc1nn(-c2ccc(C(F)(F)F)cn2)cc1CCCOc1cc(CCC(=O)O)n(C2CCCCC2)n1 [Example 256, 3-[1-cyclohexyl-3-(3-{3-propyl-1-[5-(trifluoromethyl)-2-pyridyl]-1H-pyrazol-4-yl}propoxy)-1H-pyrazol-5-yl]propanoic acid] | 164 to 165
CCCc1nn(-c2ccc(C(F)(F)F)cn2)cc1CCCOc1ccccc1CCC(=O)O [Example 83, 3-[2-(3-{3-propyl-1-[5-(trifluoromethyl)-2-pyridyl]-1H-pyrazol-4-yl}propoxy)phenyl]propionic acid] | 87 to 88
CCC(=O)Nc1ccc(-n2cc(CCCOc3c(CC(=O)O)cccc3OC)c(C(C)C)n2)nc1 [Example 266, (3-methoxy-2-{3-[3-isopropyl-1-(5-propanoylamino-2-pyridyl)-1H-pyrazol-4-yl]propoxy}phenyl)acetic acid] | 147 to 148
CCc1cnn(CC(=O)O)c1OCCCc1cn(-c2ccc(C(F)(F)F)cn2)nc1C(C)C [Example 328, [4-ethyl-5-(3-{3-isopropyl-1-[5-(trifluoromethyl)-2-pyridinyl]-1H-pyrazol-4-yl}propoxy)-1H-pyrazol-1-yl]acetic acid] | 111 to 112
CCCC(=O)Nc1ccc(-n2cc(CCCOc3c(CC(=O)O)cccc3OC)c(C(C)C)n2)nc1 [Example 267, (2-{3-[1-(5-butyrylamino-2-pyridyl)-3-isopropyl-1H-pyrazol-4-yl]propoxy}-3-methoxyphenyl)acetic acid] | 119 to 120
Cc1nn(-c2ccc(C(F)(F)F)cn2)cc1CCCOc1cc(CCC(=O)O)n(-c2ccccc2)n1 [Example 128, 3-[3-(3-{3-methyl-1-[5-(trifluoromethyl)-2-pyridyl]-1H-pyrazol-4-yl}propoxy)-1-phenyl-1H-pyrazol-5-yl]propionic acid] | 125 to 126
CC(C)(Oc1cccc(OCCCc2cn(-c3ccc(C(F)(F)F)cn3)nc2-c2ccccc2)c1)C(=O)O [Example 133, 2-methyl-2-[3-(3-{3-phenyl-1-[5-(trifluoromethyl)-2-pyridyl]-1H-pyrazol-4-yl}propoxy)phenoxy]propionic acid] | 141 to 142
COc1cccc(CC(=O)O)c1OCCCc1cn(-c2ccc(NC(=O)C(C)C)cn2)nc1C(C)C [Example 268, [3-methoxy-2-(3-{3-isopropyl-1-[5-(2-methylpropanoylamino)-2-pyridyl]-1H-pyrazol-4-yl}propoxy)phenyl]acetic acid] | 122 to 123
CCCc1nn(-c2ccc(C(F)(F)F)cn2)cc1CCCOc1ccc(CC(=O)O)cc1OC [Example 79, [3-methoxy-4-(3-{3-propyl-1-[5-(trifluoromethyl)-2-pyridyl]-1H-pyrazol-4-yl}propoxy)phenyl]acetic acid] | 121 to 122
CCc1cnc(-n2cc(CCCOc3c(CC(=O)O)cccc3OC)c(C(C)C)n2)nc1 [Example 276, (2-{3-[1-(5-ethylpyrimidin-2-yl)-3-isopropyl-1H-pyrazol-4-yl]propoxy}-3-methoxyphenyl)acetic acid] | 103 to 104
